Source: ChEMBL document CHEMBL1201862, “PubChem BioAssay data set” (2004)
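1) Cells in 96-well plates. 2) Compound, 48 h, 5 concentrations. 3) Linear interpolation between surrounding doses. 4) Unreached endpoint = highest concentration. GI50 marks 50% less growth.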 Activity calls are given as the source filed them. Rule as the data show it: active = GI50 up to about 1.1 µM and inactive = higher.

Legend:
Experiment in all cases: DTP human tumour cell line panel, 48 h
[1] = system: A549
[2] = system: SF-295
[3] = system: DMS-273
[4] = system: LOX IMVI
[5] = system: RXF 393
[6] = system: M14
[7] = system: COLO 205
[8] = system: SN12C
[9] = system: 786-0
[10] = system: OVCAR-8
[11] = system: UACC-257
[12] = system: SW-620
[13] = system: U-251
[14] = system: OVCAR-3
[15] = system: KM-20L2
[16] = system: SNB-19
[17] = system: HOP-62
[18] = system: XF498
[19] = system: KM12
[20] = system: NCI-H226
[21] = system: TK-10
[22] = system: HCT-116
[23] = system: SR
[24] = system: SNB-75
[25] = system: SNB-78
[26] = system: Malme-3M
[27] = system: HOP-92
[28] = system: NCI-H522
[29] = system: HL-60
[30] = system: LXFL 529
[31] = system: M19-MEL
[32] = system: OVCAR-4
[33] = system: SK-MEL-2
[34] = system: SK-MEL-28
[35] = system: HT-29
[36] = system: DMS-114
[37] = system: UO-31
[38] = system: NCI-H23
[39] = system: OVCAR-5
[40] = system: HCC 2998
[41] = system: SF-539
[42] = system: NCI-H460
[43] = system: CAKI-1
[44] = system: IGROV-1
[45] = system: A498
[46] = system: UACC-62
[47] = system: RPMI-8226
[48] = system: MOLT-4
[49] = system: SK-OV-3
[50] = system: K562
[51] = system: SF-268
[52] = system: DLD-1
[53] = system: CCRF-CEM

Measured: GI50

CN(C)C(=N)c1ccccc1
inactive: [1] > 100 µM | [2] > 100 µM | [3] > 100 µM | [4] > 100 µM | [5] > 100 µM | [6] > 100 µM | [7] > 100 µM | [8] > 100 µM | [9] > 100 µM | [10] > 100 µM | [11] > 100 µM | [12] > 100 µM | [13] > 100 µM | [14] > 100 µM | [15] > 100 µM | [16] > 100 µM | [17] > 100 µM | [18] > 100 µM | [19] > 100 µM | [20] > 100 µM | [21] > 100 µM | [22] > 100 µM | [23] > 100 µM | [24] > 100 µM | [25] > 100 µM | [26] > 100 µM | [27] > 100 µM | [28] > 100 µM | [29] > 100 µM | [30] > 100 µM | [31] > 100 µM | [32] > 100 µM | [33] > 100 µM | [34] > 100 µM | [35] > 100 µM | [36] > 100 µM | [37] > 100 µM | [38] > 100 µM | [39] > 100 µM | [40] > 100 µM | [41] > 100 µM | [42] > 100 µM | [43] > 100 µM

Cc1ncc(CI)c(CI)c1O
inactive: [44] > 100 µM | [45] > 100 µM | [3] 14.8 µM | [6] > 100 µM | [7] > 100 µM | [46] > 100 µM | [8] 17.2 µM | [9] 16.9 µM | [47] 6.7 µM | [48] 12.7 µM | [17] 17.2 µM | [18] 20.1 µM | [20] 2.39 µM | [22] 15.6 µM | [23] 12.6 µM | [24] 16.8 µM | [25] > 100 µM | [26] 17.5 µM | [27] > 100 µM | [28] 3.34 µM | [29] 2.22 µM | [49] > 100 µM | [30] > 100 µM | [31] > 100 µM | [32] > 100 µM | [50] 5.85 µM | [33] 21.3 µM | [51] 24.3 µM | [34] 18 µM | [52] 24.7 µM | [53] 3.93 µM | [36] > 100 µM | [37] 2.5 µM | [38] 19.4 µM | [40] 18.8 µM | [41] 23.4 µM | [42] > 100 µM | [43] 63.2 µM
